Reference: US12382888B2, “Compositions and methods for modulating immunity in plants” (Boyce Thompson Institute for Plant Research, Inc., priority 2013, dated 2025)
“Also recorded” adds a separate entry of the source.

Columns and labels:
[1] = tested on: PR-1; experiment: PR-1 expression in Arabidopsis leaves (semi-quantitative PCR / qRT-PCR)
[2] = tested on: PDF1.2; experiment: PDF1.2 expression in Arabidopsis leaves (semi-quantitative PCR / qRT-PCR)
[3] = tested on: tomato suspension cells; type: cell-based
[4] = tested on: EBF1, ERS1, ERS2, ERF1, ACO1, SAUR34, DRM2, AUX1, IAA6 and ARF19; experiment: Ethylene- and auxin-responsive gene markers in Arabidopsis leaves after root pretreatment (qRT-PCR); type: in vivo, Arabidopsis thaliana; conditions: root treatment 1 μM, 24 hpt
[5] = tested on: MPK3 and MPK6; experiment: MAPK activation phosphorylation in Arabidopsis leaves (immunoblot); type: in vivo, Arabidopsis thaliana; conditions: leaf infiltration 1 μM; 10 minutes
[6] = tested on: FRK1, PHI1, PR-4, AOS, GSTF6, LOX2; experiment: Defense gene markers in Arabidopsis leaves after root pretreatment (qRT-PCR); type: in vivo, Arabidopsis thaliana; conditions: root treatment 1 μM
[7] = tested on: Blumeria graminis f. sp. hordei (Bgh); experiment: Resistance of barley to Blumeria graminis f. sp. hordei (pustule count); conditions: barley cv. Golden Promise; leaves sprayed 0.01 μM to 1 μM 48 hours before inoculation; 7 dpi
Method: Barley leaves were sprayed with the indicated concentrations of ascr #18 48 hours before inoculation with Blumeria graminis f. sp. hordei (Bgh). Photograph of barley leave segments infected with Bgh were taken at 7 days post inoculation (dpi). FIG. 15C: Provides the number of Bgh pustules counted at 7 dpi. […] Leaves of barley plants were sprayed with water or ascr #18 (1 μM). Plants were inoculated with Bgh 48 hours post treatment. […] Data are average±SD (n=3, where n denotes the number of independent samples). (*P≤0.05; **P≤0.005; ***P≤0.0005, two-tailed t-test).
For barley cv. Golden Promise, 7-days old seedlings were pretreated by spraying with different concentrations of ascr #18. Inoculation with Bgh was done 48 hours post treatment using a detached leaflet assay. Briefly 10 leaves from 5 different plants per treatment were cut and transferred to Petri dishes containing 1% water agar. Leaves were then inoculated with Bgh. Water was used as mock control. Pustules were counted 7 dpi.

[8] = tested on: PR-1; experiment: PR-1 protein/transcript induction in tobacco leaves (immunoblot, RT-PCR)
Method: Four-weeks old tobacco plants were syringe-infiltrated with buffer, SA, or a mixture of SA (50 μM or 500 μM) and decreasing concentration of ascr #18 (10, 0.3, and 0.01 μM). PR-1 was assayed 48 hours after treatment by immunoblot using anti-PR-1 antibody.
PR-1 expression was analyzed 48 hp SA treatment.
To determine whether ascr #18 affects levels of the prototypic SA-responsive PR-1 gene/protein, tobacco plants were treated with varying concentrations of ascr #18 in the presence or absence of SA (FIG. 2).

[9] = tested on: M. incognita; experiment: Arabidopsis root knot nematode infection assay; type: in vivo, Meloidogyne incognita
[10] = tested on: Heterodera schachtii; experiment: Arabidopsis cyst nematode infection assay; type: in vivo
[11] = tested on: Botrytis cinerea; experiment: Resistance of tomato to Botrytis cinerea B05.01 (detached leaflet assay); type: in vivo; conditions: tomato cv. M82; root immersion 0.01 μM 48 hours before
[12] = tested on: Pst DC3000; experiment: Resistance of tomato to Pst DC3000 (bacterial growth); type: in vivo, Pseudomonas syringae pv. tomato
[13] = tested on: Aspergillus fumigatus; experiment: Disk-diffusion assay, Aspergillus fumigatus; conditions: up to 10 mM
[14] = tested on: GRAS4, GST, β-1,3-glucanase, AOS2; experiment: Defense response genes in tomato leaves after root pretreatment (qRT-PCR); type: in vivo, tomato (Solanum lycopersicum); conditions: root treatment 10 nM
[15] = tested on: PR-1, FRK1, PHI1, WRKY53; experiment: Defense gene expression in Arabidopsis roots (qRT-PCR)
Method: FIG. 18C: Eight days old Arabidopsis seedlings were treated by root bathing using the indicated concentrations of ascr #18. Root samples were collected 6 hours after treatment for RNA extraction. Transcript levels of PHI1, FRK1 and WRKY53 were determined by qRT-PCR and normalized to endogenous UFP (AT4G01000) . *P≤0.05; **P≤0.005; ***P≤0.0005, two-tailed 1-test.
Roots of Arabidopsis seedlings were treated with water (CK) or with various ascr #18 concentrations for 48 hours. Roots were then collected and used to extract RNA for qRT-PCR analysis.
For the RNA analyses in roots, Arabidopsis roots were collected from 20-30 seedlings from each treatment and mRNA was isolated using the Dynabeads mRNA DIRECT Kit (Life Technologies). DNA contamination was removed by treatment with DNase I (Life Technologies). First-strand cDNA was synthesized from 50 ng of mRNA using ProtoScript II Reverse Transcriptase (NEB). […] All assays consisted of three technical replicates for each RNA sample. Data was analyzed using the iCycler iQ Real-Time PCR Detection System Software version 3.0a (Bio-Rad). The Arabidopsis UFP gene (AT4G01000) was used as an endogenous reference gene. PCR was started with an activation and DNA denaturation step (95° C. for 3 minutes), then followed by 40 cycles of 95° C. for 20 seconds and 60° C. for 40 seconds.

[16] = tested on: B. subtilis; experiment: Disk-diffusion assay, B. subtilis; conditions: up to 10 mM
[17] = tested on: Pseudomonas syringae pv. tabaci; experiment: Resistance of tobacco to Pseudomonas syringae pv. tabaci (bacterial growth); conditions: for resistance to P. syringae pv tabaci: 2 dpi
[18] = tested on: E. coli; experiment: Disk-diffusion assay, E. coli; conditions: up to 10 mM
[19] = tested on: PR-1; experiment: PR-1 gene expression in barley leaves (qRT-PCR)
Method: Barley leaves were sprayed with the indicated concentrations of ascr #18 48 hours before inoculation with Blumeria graminis f. sp. hordei (Bgh). […] Leaves of barley plants were sprayed with water or ascr #18 (1 μM). Plants were inoculated with Bgh 48 hours post treatment. Leaves were collected at 16 hpi and used to extract RNA for qRT-PCR analysis. Data are average±SD (n=3, where n denotes the number of independent samples). (*P≤0.05; **P≤0.005; ***P≤0.0005, two-tailed t-test).
Leaves of barley plants were sprayed with various concentrations of ascr #18 or water (mock) for 48 hours. 48 hours post treatment plants were inoculated with Bgh. Leaves were collected at 16 hpi and used to extract RNA for qRT-PCR analysis.
For barley analyses, RNA extraction from infected barley leaves was performed with TRIzol (Invitrogen) following the manufacturer's instructions. Freshly extracted mRNA was used for cDNA synthesis using QuantiTect Reverse-Transcription kit (Qiagen). cDNA was stored at −20° C. For qRT-PCR, 50 ng of cDNA was used as template in the Applied Biosystems 7500 FAST real time PCR system. Amplifications were performed in 7.5 μL of SYBER green JumpStart Taq ReadyMix (Sigma-Aldrich) with 0.5 pmol oligonucleotides. […] Ubiquitin was used as an endogenous reference gene.

[20] = tested on: Pseudomonas syringae pv. tomato DC3000 (Pst); experiment: Resistance of Arabidopsis to Pseudomonas syringae pv. tomato DC3000 (bacterial growth); type: in vivo; conditions: for protection against Pst DC3000: compared with 1 μM
[21] = leaf infiltration 0.01 μM or 0.3 μM, 24 hpt, qRT-PCR
[22] = leaf pretreatment by syringe infiltration, 0.01, 0.3, and 10 μM
[23] = root pretreatment 10 nM, 48 hours
[24] = root treatment of seedlings, various concentrations, 48 hours

CC1O[C@@H](O[C@@H](C)CCCCCCCCC(=O)O)C(O)C[C@H]1O (stereo in doubt) [ascr #18, (10R)-(3′R,5′R-dihydroxy-6′S-methyl-(2H)-tetrahydropyran-2-yloxy)-undecanoic Acid]
PR-1 expression ([1]; ascr #18 (0.01 or 0.3 μM) alone, test leaves or roots treated, 24 hours): induces PR-1 expression even in the absence of SA; also recorded: altered | SA-mediated PR-1 expression ([1]; ascr #18 co-applied with SA (50 μM) to leaves or applied through roots): suppresses SA-mediated PR-1 expression | PR-1 transcripts [1, 21]: elevated; also recorded: Induction | PR-1 expression in Arabidopsis [1, 22]: + | PDF1.2 expression, systemic ([2]; a subset of leaves treated): induced PDF1.2 expression in untreated, as well as treated, leaves | PDF1.2 expression ([2]; ascr #18 (0.01 or 0.3 μM), test leaves or roots treated, 24 hours): induces expression of the prototypic JA-responsive PDF1.2 gene; also recorded: altered | PDF1.2 transcripts [2, 21]: elevated; also recorded: Induction | PDF1.2 expression in Arabidopsis [2, 22]: + | media alkalinization (pH of culture medium) [3]: induced media alkalinization in a dose-dependent manner | auxin or ET-regulated defense signaling ([4]; 10 genes): does not strongly affect auxin or ET-regulated defense signaling | SAUR34 expression ([4]; only one of 10 tested genes): enhanced | phosphorylation of MPK3 and MPK6 [5]: transient increase in the phosphorylation of both MAPKs; also recorded: Activation | FRK1 expression in leaves ([6]; 6 hpt): induced | AOS expression in leaves ([6]; 24 hpt): increased expression | GSTF6 expression in leaves ([6]; 24 hpt): increased expression | LOX2 expression in leaves ([6]; 24 hpt): increased expression | PHI1 expression in leaves ([6]; 24 hpt): induced | PR-4 expression in leaves ([6]; 24 hpt): increased expression | resistance to Bgh (number of pustules) [7]: enhances basal resistance; also recorded: increased resistance to Bgh; also recorded: enhanced resistance | PR-1 accumulation in presence of SA ([8]; ascr #18 0.01 or 0.3 μM with SA 500 μM or 50 μM, leaf infiltration, vs SA only): enhanced PR-1 accumulation | PR-1 protein accumulation ([8]; tobacco leaves, ascr #18 alone 0.01, 0.3, or 10 μM, syringe infiltration, 48 hours): did not induce PR-1 protein accumulation | concentration providing best protection against root infection ([9]; Arabidopsis, root knot nematodes): 10 nM | infection with root knot nematode M. incognita [9, 23]: significantly reduced infection | concentration providing best protection against root infection ([10]; Arabidopsis, cyst nematodes): 10 nM | resistance to H. schachtii (females counted) ([10]; media containing 50 nM or 600 nM, 19 dpi): enhances resistance | infection with cyst nematode H. schachtii [10, 23]: significantly reduced infection | resistance to B. cinerea (lesion size 3 dpi) [11]: did not have a significant effect | growth of Pst DC3000 in tomato leaves ([12]; higher concentrations than 10 nM): less effective | growth of Pst DC3000 in tomato leaves ([12]; tomato cv. M82, root treatment 10 nM 48 hours before, 4 dpi): significantly reduced the growth | growth inhibition [13]: no growth inhibition | β-1,3-glucanase transcript level in leaves ([14]; 24 hpt): enhanced levels | AOS2 transcript level in leaves ([14]; 48 hpt): significantly elevated | GRAS4 transcript level in leaves ([14]; 48 hpt): significantly elevated | GST transcript level in leaves ([14]; 48 hpt): significantly elevated | β-1,3-glucanase transcript level in leaves ([14]; 48 hpt): significantly elevated | root expression of FRK1 ([15]; 10 or 50 nM, within 6 hours): induced | root expression of PHI1 ([15]; 10 or 50 nM, within 6 hours): induced | root expression of WRKY53 ([15]; 10 or 50 nM, within 6 hours): induced | FRK1 expression in roots [15, 24]: induces; also recorded: induction | PR-1 expression in roots [15, 24]: induces; also recorded: induction | growth inhibition [16]: no growth inhibition | resistance to P. syringae pv tabaci, SA added ([17]; SA 50 μM infiltrated 24 hours after ascr #18 0.01 μM pretreatment): no further enhancement of resistance | resistance to virulent P.t. (bacterial growth) ([17]; ascr #18 0.01 μM alone, leaves (infiltration) or roots (immersion) 24 hours before inoculation, 48 hpi): sufficient to enhance resistance; also recorded: enhanced resistance | virulent P.t. growth, both compounds ([17]; ascr #18 and SA provided simultaneously, vs single treatment): no greater reduction | resistance to P. syringae pv tabaci ([17]; leaf syringe infiltration 0.01 μM, inoculation 48 hours after): enhanced resistance | resistance to P. syringae pv tabaci ([17]; root immersion, ascr #18 0.01 μM or 0.03 μM): enhances resistance | resistance to P. syringae pv tabaci ([17]; spray 0.01 μM 48 hours before inoculation): enhances resistance | resistance to P. syringae pv tabaci, combination ([17]; spray ascr #18 0.01 μM combined with SA 50 μM): did not further increase resistance | growth inhibition [18]: no growth inhibition | PR-1 gene expression, with Bgh inoculation ([19]; 1 μM ascr #18 plus inoculation with Bgh, 16 hpi): further enhanced; also recorded: even higher levels of PR-1 expression | PR-1 gene expression ([19]; barley leaves sprayed, 1 μM, 48 hours): induces PR-1 gene expression; also recorded: induced PR-1 transcript accumulation; also recorded: induction of PR-1 gene | resistance to Pst, co-treatment ([20]; ascr #18 0.3 μM with SA 50 μM, leaf infiltration): further enhanced resistance; also recorded: strongly enhanced resistance | concentration for best/maximal protection against leaf infection (Pst; bacterial and viral pathogens) ([20]; in vivo): 1 µM | resistance to virulent Pst DC3000 (bacterial growth) ([20]; leaf syringe infiltration 0.3 μM 24 hours prior to inoculation, 3 dpi): enhanced resistance; also recorded: low level of protection | resistance to P. syringae pv tomato ([20]; root immersion 0.3 μM, 1 μM, or 5 μM 24 hours prior to inoculation): enhanced resistance | protection against Pst DC3000 ([20]; root immersion 0.3 μM): less effective | protection against Pst DC3000 (bacterial growth) ([20]; root immersion 1 μM, 24 hours before inoculation, 3 dpi): strong protection; also recorded: reduced growth | protection against Pst DC3000 ([20]; root immersion 5 μM): less effective
